Laboratory results taken from ChEMBL document CHEMBL6177981, “Bardoxolone Derivatives as Novel Pseudo-Natural Necroptosis Inhibitors by Destabilizing HSP90 Client Proteins” (J Med Chem, 2025).
The source made the active and inactive calls. The calls are words filed in the database; no cut-off is given here.

Experiments:
[1] = Tmax in Sprague-Dawley rat at 10 mg/kg, IG measured after 24 hrs by LC-MS/MS analysis; format: ADME, organism-based; details: in vivo, po
[2] = Acute toxicity in male C57BL/6J mouse assessed as inflammatory cell infiltration in spleen at 2 g/Kg, IG measured after 72 hrs by H and E staining based analysis; format: tissue-based; details: in vivo, po, 2000 mg/kg
[3] = Acute toxicity in male C57BL/6J mouse assessed as inflammatory cell infiltration in kidney at 2 g/Kg, IG measured after 72 hrs by H and E staining based analysis; format: tissue-based; details: in vivo, po, 2000 mg/kg
[4] = tested on: HT-29; test: Downregulation of RIPK1 protein level in human HT-29 cells at 6 uM preincubated with NH4Cl for 2 hrs followed by compound addition and measured after 9 hrs by Western blot analysis; format: functional, cell-based
[5] = Acute toxicity in male C57BL/6J mouse assessed as structural changes in lung at 2 g/Kg, IG measured after 72 hrs by H and E staining based analysis; format: tissue-based; details: in vivo, po, 2000 mg/kg
[6] = Acute toxicity in male C57BL/6J mouse assessed as structural changes in liver at 2 g/Kg, IG measured after 72 hrs by H and E staining based analysis; format: tissue-based; details: in vivo, po, 2000 mg/kg
[7] = target: Heat shock protein HSP 90-alpha (Homo sapiens, UniProt P07900); test: Binding affinity to N-terminal 6His/SUMO-tagged recombinant human HS90AA1 assessed as dissociation constant incubated for 30 mins by MST analysis
[8] = tested on: HT-29; test: Downregulation of total RIPK3 protein level in TSZ-induced human HT-29 cells at 10 uM preincubated with compound followed by Z-VAD-FMK, SM164 and TNFalpha stimulation and measured after 6 hrs by Western blot analysis; format: functional, cell-based
[9] = tested on: Mus musculus; test: Anti-necroptotic activity in TNFalpha/Z-VAD-FMK induced SIRS male C57BL/6J mouse model assessed as survival rate at 10 mg/kg, po pre-administered with compound via gavage for 2 hrs followed by […] of Z-VAD-FMK stimulation for 15 mins with subsequent TNF-alpha stimulation for 1 hrs and re-current […] of Z-VAD-FMK stimulation and measured after 8 hrs post SIRS induction relative to control; format: functional; details: time 10 hrs
[10] = Acute toxicity in male C57BL/6J mouse assessed as structural changes in spleen at 2 g/Kg, IG measured after 72 hrs by H and E staining based analysis; format: tissue-based; details: in vivo, po, 2000 mg/kg
[11] = Acute toxicity in male C57BL/6J mouse assessed as hemorrhage in intestine at 2 g/Kg, IG measured after 72 hrs by H and E staining based analysis; format: tissue-based; details: in vivo, po, 2000 mg/kg
[12] = tested on: Mus musculus; test: Anti-necroptotic activity in TNFalpha/Z-VAD-FMK induced SIRS male C57BL/6J mouse model assessed as reduction in IL-1beta in serum pre-administered orally with compound via gavage for 2 hrs followed by […] of Z-VAD-FMK stimulation for 15 mins with subsequent TNF-alpha stimulation for 1 hrs and re-current […] of Z-VAD-FMK stimulation and measured after 8 hrs post SIRS induction by ELISA; format: functional, organism-based; details: dose 2.5-10 mg/kg, route po, time 10.0 hrs
[13] = tested on: HeLa; test: Inhibition of RIPK1 protein expression in RIPK3-deficient human HeLa cells at 6 uM preincubated with MG132 for 2 hrs followed by compound addition and measured after 9 hrs by Western blot analysis; format: functional, cell-based
[14] = tested on: HT-29; test: Downregulation of MLKL protein level in human HT-29 cells at 6 uM preincubated with MG132 for 2 hrs followed by compound addition and measured after 9 hrs by Western blot analysis; format: functional, cell-based
[15] = Acute toxicity in male C57BL/6J mouse assessed as hemorrhage in brain at 2 g/Kg, IG measured after 72 hrs by H and E staining based analysis; format: tissue-based; details: in vivo, po, 2000 mg/kg
[16] = tested on: RAW264.7; test: Anti-necroptotic activity in LZ-induced mouse RAW264.7 cells assessed as increase in cell viability preincubated with compound followed by LPS and Z-VAD-FMK stimulation and measured after 16 hrs by CellTiter-Lumi luminescent cell viability assay; format: functional, cell-based
[17] = Acute toxicity in male C57BL/6J mouse assessed as inflammatory cell infiltration in stomach at 2 g/Kg, IG measured after 72 hrs by H and E staining based analysis; format: tissue-based; details: in vivo, po, 2000 mg/kg
[18] = tested on: HT-29; test: Anti-necroptotic activity in TSZ-induced human HT-29 cells assessed as cell survival at 10 uM measured after 12 hrs by Live-cell super-resolution panoramic microscopic analysis (reference value: 8 hrs); format: functional
[19] = tested on: Mus musculus; test: Anti-necroptotic activity in TNFalpha/Z-VAD-FMK induced SIRS male C57BL/6J mouse model assessed as reduction in IL6 in heart at 5 to 10 mg/kg, po pre-administered with compound via gavage for 2 hrs followed by […] of Z-VAD-FMK stimulation for 15 mins with subsequent TNF-alpha stimulation for 1 hrs and re-current […] of Z-VAD-FMK stimulation and measured after 8 hrs post SIRS induction by ELISA; format: functional, organism-based; details: dose 5-10 mg/kg, time 10.0 hrs
[20] = target: Heat shock protein HSP90 (Homo sapiens) (UniProt P07900+P08238); test: Inhibition of HSP90 in TSZ-induced human HT-29 cells assessed as reduction in EGFR protein level preincubated with compound followed by Z-VAD-FMK, SM164 and TNFalpha stimulation and measured after 6 hrs by Western blot analysis; format: cell-based; details: dose 0.625-10 µM
[21] = tested on: Mus musculus; test: Anti-necroptotic activity in TNFalpha/Z-VAD-FMK induced SIRS male C57BL/6J mouse model assessed as reduction in IL6 in serum pre-administered orally with compound via gavage for 2 hrs followed by […] of Z-VAD-FMK stimulation for 15 mins with subsequent TNF-alpha stimulation for 1 hrs and re-current […] of Z-VAD-FMK stimulation and measured after 8 hrs post SIRS induction by ELISA; format: functional, organism-based; details: dose 2.5-10 mg/kg, route po, time 10.0 hrs
[22] = tested on: HT-29; test: Downregulation of MLKL protein level in human HT-29 cell supernatant at 6 uM measured after 9 hrs by Western blot analysis; format: functional, cell-based
[23] = tested on: HT-29; test: Downregulation of MLKL protein level in human HT-29 cells incubated for 9 hrs by Western blot analysis; format: functional, cell-based; details: dose 0.75-6 µM
[24] = tested on: Mus musculus; test: Anti-necroptotic activity in TNFalpha/Z-VAD-FMK induced SIRS male C57BL/6J mouse model assessed as survival rate at 2.5 mg/kg, po pre-administered with compound via gavage for 2 hrs followed by […] of Z-VAD-FMK stimulation for 15 mins with subsequent TNF-alpha stimulation for 1 hrs and re-current […] of Z-VAD-FMK stimulation and measured after 8 hrs post SIRS induction relative to control; format: functional; details: time 10 hrs
[25] = tested on: HT-29; test: Anti-necroptotic activity in TSZ-induced human HT-29 cells assessed as increase in cell viability at 2.5 uM preincubated with compound followed by Z-VAD-FMK, SM164 and TNFalpha addition and measured after 12 hrs by CellTiter-Lumi luminescent cell viability assay relative to control; format: functional
[26] = tested on: HT-29; test: Effect on cell morphology in TSZ-induced necroptotic human HT-29 cells at 10 uM measured after 12 hrs by Live-cell super-resolution panoramic microscopic analysis; format: functional, cell-based
[27] = tested on: L929; test: Anti-necroptotic activity in TZ-induced mouse L929 cells assessed as increase in cell survival at 10 uM measured after 12 hrs by Live-cell super-resolution panoramic microscopic analysis; format: functional, cell-based
[28] = Acute toxicity in male C57BL/6J mouse assessed as structural changes in heart at 2 g/Kg, IG measured after 72 hrs by H and E staining based analysis; format: tissue-based; details: in vivo, po, 2000 mg/kg

In the case of `Cn1ccc(-c2ccc(NC(=O)[C@]34CCC(C)(C)C[C@H]3[C@H]3C(=O)C=C5[C@@]6(C)C=C(C#N)C(=O)C(C)(C)[C@@H]6CC[C@@]5(C)[C@]3(C)CC4)cc2)n1`, the Tmax [1] is reported as 14 h, the Activity [2] is reported as “Non-toxic” and the Activity [3] is reported as “Non-toxic”. The Activity [4] was “Active”, the Activity [5] was “Non-toxic” and the Activity [6] was “Non-toxic”. The Kd [7] was 185 nM, the Activity [8] was “Active” and the survival at 10 mg/kg [9] was 100%. The Activity [10] was “Non-toxic”, the Activity [11] was “Non-toxic” and the Activity [12] was “Dose-dependent-effect”. The inhibition [13] was “Active”, the Activity [14] was “Active” and the Activity [15] was “Non-toxic”. The Activity [16] was “Dose-dependent-effect”, the Activity [17] was “Non-toxic” and the Survival [18] was 9 h. For the same compound, the Activity [19] was “Active”, the inhibition [20] was “Dose-dependent-effect” and the Activity [21] was “Dose-dependent-effect”. The Activity [22] was “Active”, the Activity [23] was “Dose-dependent-effect” and the survival at 2.5 mg/kg [24] was 35%. The Activity [25] was 100%, the Activity [26] was “Active” and the Activity [27] was “Active”. For the same compound, the Activity [28] was “Non-toxic”.
